Consider three compounds from patent US11591326B2, “Inhibitors of protein arginine methyltransferase 5 (PRMT5), pharmaceutical products thereof, and methods thereof” (PHARMABLOCK SCIENCES (NANJING), INC., priority 2018, dated 2023).

The subject of series [1] is Pancreatic Carcinoma MIA PaCa-2 cell. Put plainly: Cell proliferation inhibition, MIA PaCa-2 (CellTiter-Glo). The series is classed as cell-based. The settings on record: Homo sapiens, MIA PaCa-2, incubated for 12 days (read after 8 or 12 days), read-out: IC50 (μM) MIA PaCa2. An excerpt: Materials and Cell Lines: Z-138, U251, and MIA PaCa2 cells were purchased from ATCC (American Type Culture Collection, Manassas, Va.) and Chinese Academy of Science (Shanghai, China). Iscove's Modified Dulbecco's Medium (IMDM), Dulbecco's Modified Eagle Medium (DMEM), penicillin-streptomycin, heat inactivated fetal bovine serum (FBS), and horse serum was purchased from ThermoFisher, Waltham, Mass., USA. Corning 96- and 384-well cell culture plates were purchased from ThermoFisher, Waltham, Mass., USA. Cell-Titer Glo® was purchased from Promega Corporation, Madison, Wis., USA.
In order to evaluate the inhibitory ability of compounds synthesized on the proliferation of the Pancreatic Carcinoma MIA PaCa-2 cell, exponentially growing cells were seeded in the culture media of DMEM with 10% FBS, 2.5% horse serum, 1 mM of Sodium Pyruvate and 1% penicillin-streptomycin at a concentration of 2500 cells/ml in a 384-well plate with 20 ul per well and incubated overnight at 37° C., 5% CO2 incubator. Compounds were prepared as 10-point, 3-fold serial dilutions in DMSO, beginning at 6 mM. 1 μl of DMSO solutions from the compound stock plates were added to 99 ul of cell media (final top concentration of compound in the assay was 30 uM and the final concentration of DMSO was 0.5%). 20 μL of compound solutions in media were added to each well of MIA PaCa-2 cell plates. After adding compound solutions, assay plates were incubated for 12 days at 37° C., 5% CO2. During this incubation period, cell media was changed every 4 days. After removing old media from cell plates, 40 ul of media with testing compounds dissolved, which were prepared by adding 1 ul of compound DMSO serial solutions to 199 ul of cell media, were added to the assay plates with the same layout as they were initially prepared. After 8 or 12 days, cell viability was measured using the CellTiter-Glo assay kit from Promega (Madison, Wis., USA) by quantitating the ATP present in the cell cultures. 20 μL of CellTiter-Glo reagent was added to each well of the cell plates. Luminescence was read after 10 minute of incubation with the Envision multiple plate reader from PerkinElmer (Waltham, Mass., USA). The concentrations of compounds inhibiting cell viability by 50% (IC50 values) were determined using a sigmoidal dose-response model (variable slopes, four parameters) in Prism 7 (La Jolla, Calif., USA).

Series [2] concerns MDA-MB-453. Put plainly: Breast cancer panel proliferation inhibition, MDA-MB-453. It is filed as cell-based. The settings on record: Homo sapiens. The protocol:
(§1) Inhibitory ability of compounds synthesized on the proliferation of three panels of cancer cell lines, including 5 breast cancer, 6 liver cancer, and 3 lung cancer cell lines were evaluated. Exponentially growing cells were seeded in the media of choice at various cell densities in 384-well plates with 20 ul per well and incubated overnight at 37° C., 5% CO2 incubator. Compounds were prepared as 10-point, 3-fold serial dilutions in DMSO, beginning at 6 mM. 1 μl of DMSO solutions from the compound stock plates were added to 99 ul of cell media (final top concentration of compound in the assay was 30 uM and the final concentration of DMSO was 0.5%). 20 μL of compound solutions in media were added to each well of plates with cells seeded. After adding compound solutions, assay plates were incubated for 8 and 12 days, respectively, at 37° C., 5% CO2. During this incubation period, cell media was changed every 4 days. After removing old media from cell plates, 40 ul of media with testing compounds dissolved, which were prepared by adding 1 ul of compound DMSO serial solutions to 199 ul of cell media, were added to the assay plates with the same layout as they were initially prepared. After 8 or 12 days, cell viability was measured using the CellTiter-Glo assay kit from Promega (Madison, Wis., USA) by quantitating the ATP present in the cell cultures. 20 μL of CellTiter-Glo reagent was added to each well of the cell plates. Luminescence was read after 10 minute of incubation with the Envision multiple plate reader from PerkinElmer (Waltham, Mass., USA). The concentrations of compounds inhibiting cell viability by 50% (IC50 values) were determined using a sigmoidal dose-response model (variable slopes, four parameters) in Prism 7 (La Jolla, Calif., USA).

In series [3] the test system is Hep G2. Put plainly: Liver cancer panel proliferation inhibition, Hep G2. The settings on record: Homo sapiens. It is filed as cell-based. The protocol: as §1
The test system of series [4] is MHCC-97H. Put plainly: Liver cancer panel proliferation inhibition, MHCC-97H. It is filed as cell-based. The settings on record: Homo sapiens, MHCC97H. The protocol: as §1
The nature of series [5]: Pharmacokinetic study in dog. The series is classed as in vivo, male beagle dogs. The settings on record: male, beagle; for plasma clearance / Vd: 2 mg/kg, Dog PK (IV) 2 mpk; for plasma clearance: read-out: Clint (converted); for Vd / AUC(0-t) / Cmax / Tmax / bioavailability / half-life: plasma; for Vd: read-out: Vss; for AUC(0-t) / Cmax / Tmax / bioavailability / half-life: 10 mg/kg, Dog PK (PO) 10 mpk; for half-life: read-out: T½ (converted). The method, then: None naïve male beagle dogs (8-10 kg; purchased from Beijing Marshall Biotechnology Co. LTD; n=18, with 3 per compound) were treated with a single dose of compounds being tested at 2 mg/kg by intravenous tail-vein injection and 10 mg/kg by oral gavage administration, with both doses formulated in 5% DMSO+45% PEG400 in water. Animals upon PO administration were fasted overnight and fed 4 hours after dosing. Animals upon IV administration were free access to food and water. The study was performed in accordance with the guidelines and standards of the Association for Assessment and Accreditation of Laboratory Animal Care (AAALAC International) and the National Institutes of Health.
The animal was restrained manually at the designated time points, and approximately 500 μL of each blood/time point was collected via cephalic vein and put on wet ice, then centrifuged at 2000 g for 5 min (4° C.) within 15 minutes post sampling. Plasma samples were stored at approximately −70° C. until analysis. An aliquot of 20 μL sample was added with 200 μL IS (Diclofenac, 100 ng/mL) in ACN. The mixture was vortexed for 10 min and centrifuged at 5800 rpm for 10 min. An aliquot of 1 μL supernatant was injected for LC-MS/MS analysis. For 10×-diluted sample, an aliquot of 2 μL sample was added with 18 μL blank plasma. The sample preparation procedure is same with no-diluted sample. Standard calibration curves were constructed by analyzing a series of control plasma aliquots containing Diclofenac (100 ng/mL) as an internal standard and 3-3,000 ng/mL testing compounds. Compound concentrations were determined with UPLC-MS/MS-22 (Triple Quad™ 6500).

Setting [6] is: 192 h, MDA-MB-453, 8 days, read-out: IC50 (μM) 8 days.
Setting [7] is: 288 h, MDA-MB-453, 12 days, read-out: IC50 (μM) 12 days.
[8] abbreviates: HepG2, 192 h, Hep G2, 8 days, read-out: IC50 (μM) 8 days.
[9] abbreviates: HepG2, 288 h, Hep G2, 12 days, read-out: IC50 (μM) 12 days.
[10] abbreviates: 192 h, 8 days, read-out: IC50 (μM) 8 days.
Where [11] appears, read: 288 h, 12 days, read-out: IC50 (μM) 12 days.

Like-named read-outs stand apart in the source and are kept apart here.

As for `CC(=O)N1CCC(Nc2ccc3c(c2)C(=O)N(C[C@H](O)CN2CCc4ccccc4C2)CC3)CC1` [Compound 24a, (R)-7-((1-acetylpiperidin-4-yl)amino)-2-(3-(3,4-dihydroisoquinolin-2(1H)-yl)-2-hydroxypropyl)-3,4-dihydroisoquinolin-1(2H)-one], the IC50 in series [1] is 0.13 µM; in series [2] (setting [6]), 0.28 µM; in series [2] (setting [7]), 0.19 µM; in series [3] (setting [8]), 2.87 µM; in series [3] (setting [9]), 0.77 µM; in series [4] (setting [10]) it was 0.02 µM. For the same compound, in series [4] (setting [11]), the IC50 was determined as 0.029 µM. Further, in series [5], the plasma clearance was 4.27 mL/min/kg. Besides, in series [5], the Vd amounted to 1.81 ± 0.13 L/kg. Also, the AUC(0-t) in series [5] was found to be 35100 ± 7990 ng·h/mL. Besides, the Cmax in series [5] amounted to 4440 ± 680 ng/mL. In series [5], the Tmax was 2 h. Further, in series [5], the bioavailability came to 89.8 ± 20.5%. Further, in series [5], the half-life is 3.76 ± 0.195 h.

On to `CC(=O)N1CCC(Nc2ccc3c(c2)C(=O)N(C[C@H](O)CN2CCc4ccccc4C2)CCO3)CC1` [Compound 52a, (R)-7-((1-acetylpiperidin-4-yl)amino)-4-(3-(3,4-dihydroisoquinolin-2(1H)-yl)-2-hydroxypropyl)-3,4-dihydrobenzo[f][1,4]oxazepin-5(2H)-one], for which the IC50 in series [1] was 0.114 µM. The IC50 in series [2] (setting [6]) was 0.14 µM. The half-inhibitory concentration (IC50) in series [2] (setting [7]) came to 0.06 µM. Also, the IC50 in series [3] (setting [8]) was determined as 3.09 µM. Further, in series [3] (setting [9]), the IC50 was found to be 0.97 µM. Also, the IC50 in series [4] (setting [10]) stood at 0.023 µM. The IC50 in series [4] (setting [11]) worked out at 0.024 µM. Moreover, in series [5], the plasma clearance was 5.17 mL/min/kg, the Vd was 1.56 ± 0.041 L/kg, the AUC(0-t) is 42100 ± 13200 ng·h/mL and the Cmax is 5550 ± 1590 ng/mL. In addition, in series [5], the Tmax turned out to be 1.33 ± 0.577 h, the bioavailability worked out at 133 ± 38.6% and the half-life is 4.81 ± 1 h.

Regarding `CC(=O)N1CCC(Nc2cc(C(=O)NC[C@H](O)CN3CCc4ccccc4C3)ncn2)CC1` [Compound C3, reference compound], the IC50 in series [1] stood at 0.15 µM. Further, the IC50 in series [2] (setting [6]) was 1.22 µM. The IC50 in series [2] (setting [7]) was determined as 0.16 µM. The half-maximal inhibitory concentration (IC50) in series [3] (setting [8]) is more than 10 µM. Further, in series [3] (setting [9]), the concentration for half-maximal inhibition (IC50) came to 3.26 µM. The IC50 in series [4] (setting [10]) was 0.089 µM. Besides, the IC50 in series [4] (setting [11]) amounted to 0.086 µM. Also, in series [5], the plasma clearance was 13.5 mL/min/kg, the Vd turned out to be 1.32 ± 0.144 L/kg, the AUC(0-t) was 13300 ± 3280 ng·h/mL and the peak level (Cmax) was 3000 ± 567 ng/mL. In addition, in series [5], the Tmax worked out at 1.67 ± 0.577 h, the bioavailability came to 105 ± 25.5% and the half-life was 3.37 ± 0.64 h.
